We go through one compound from US20110296540A1, “ASSAY FOR SCREENING ANTIDEPRESSANTS” (priority 2008, published 2011).

The test system of assay [1] is β-arrestin 2 knock out mice. The assay can be described thus: Forced Swim Test in β-arrestin 2 knock out mice and littermates. As to conditions: relative to the control group. Type of assay: in vivo. The procedure:
The forced swim test procedure was modified relative to the traditional method, so as to enhance sensitivity for detecting the putative antidepressant activity of drugs (Porsolt et al., 1977). The modifications consist of an increase in water depth (Dulawa et al., 2004). Mice were placed into plastic buckets (19 cm diameter, 23 cm deep, filled with 23-25° C. water) and videotaped for 6 min to score immobility duration.

Another assay concerns Creb-1 gene. The procedure: (§1) Tissue preparation: Animals were sacrificed by cervical dislocation. Selected brain regions were dissected and placed in tubes containing RNAlater (Ambion), incubated at 4 degrees C. overnight and stored at −80 degrees C. until processing.
(§2) Brain regions (10-20 mg) were homogenized for 20 sec at medium speed in 1.25 ml lysis/denaturation buffer (Ambion) using an Autogizer™ (Tomtec). Total RNA was isolated from 100-300 ul aliquots of the homogenate using the RNAqueous™ 96 automated kit (Ambion) according to the manufacturer's protocol. A second DNase I digestion was incorporated after elution of the RNA from the Ambion filter plate to remove residual genomic DNA. Digestion was performed for 1 hr at room temperature using DNase I™ (Invitrogen) and the buffer supplied with the enzyme. After inactivation of the DNase with EDTA and heat, the RNA was desalted with a Multiscreen™ filter plate (Millipore) and stored at −80° C. Conversion of total RNA into first strand cDNA was accomplished with Superscript II™ enzyme (Invitrogen) followed by desalting over a Multiscreen plate. Approximately 1 ug of total RNA was used for each cDNA reaction. The yield of cDNA was determined using Quant-iT Oligreen™ reagent (Invitrogen). Prior to the Oligreen assay, total RNA carried over from the cDNA reaction was hydrolyzed with NaOH and heat, followed by neutralization with Tris buffer. This treatment eliminates any contribution of the RNA to the Oligreen signal. The unknown cDNA samples were compared to a standard curve derived using a 18mer oligonucleotide. Replica cDNA plates containing 3 ng of cDNA per well were prepared using an Evolution P3™ workstation (PerkinElmer). Each animal in a given experiment was represented by one well on each plate and each plate always contained the control and treatment groups.
(§3) Quantitative PCR (qPCR) was carried out in 25 ul reactions using Full Velocity™ enzyme (Stratagene). Plates were run on either a Stratagene MX3000P™ or an Applied Biosystems 7900 HT instrument. The cycling parameters were set based on recommendations from the enzyme manufacturer. One gene expression profile was analyzed per PCR plate and duplicate plates were run for each gene. Two housekeeping genes, cyclophilin and GAPDH, were included in the gene list and were used to normalize the expression results obtained from the other genes of interest (see data analysis section). The sequences of the primers and probes for each gene are listed in supplemental table 1. Duplicate cycle thresholds (Ct values) were obtained for each gene/region and averaged. The values for cyclophilin and GAPDH were combined and used to normalize the expression values from the other genes by employing the delta Ct method. After converting delta Ct values to percentage, the mean and SEM of each animal group (controls and experimental) was calculated.
(§4) Tissue preparation, RNA extraction, DNA preparation and qPCR analysis were described in the materials and methods section. Data analysis and statistics Results from data analyses were expressed as mean±SEM. Data were analyzed using StatView 5.0 software (SAS Institute, Cary, N.C.).

Assay [2] has as its system mineralocorticoid receptor. The procedure:
as §1, §2, §3, §4

Assay [3] deals with β-arrestin 2 knock out mice. Description: Novelty Suppressed Feeding paradigm in β-arrestin 2 knock out mice and littermates. Type of assay: in vivo. From the text: Twenty-four hours prior to behavioral testing, all food was removed from the home cage. At the time of testing, a single pellet of food (regular chow) was placed on a white paper platform positioned in the center of the box.

Read-outs that look alike come from different tables or passages of the source.

As for `CNCCC(Oc1ccc(C(F)(F)F)cc1)c1ccccc1` (stereo not shown) [fluoxetine], the “immobility (FST)” value in assay [1] (wild-type mice) and in assay [1] (β-arrestin 2 knockout mice) was “decrease in immobility” throughout. For the same compound, the Creb-1 gene expression result in the assay on Creb-1 gene (amygdala), in the assay on Creb-1 gene (hippocampus) and in the assay with Creb-1 gene (hypothalamus) was “unchanged” throughout. Further, the mineralocorticoid receptor expression entry in assay [2] (amygdala), in assay [2] (hippocampus) and in assay [2] (hypothalamus) was “unchanged” each time. The “latency to feed (NSF)” value in assay [3] (mutant (β-arrestin 2 knock out) mice) was “had no effect”; in assay [3] (wild-type mice) it was “significantly decreased”.
